The experiment has as its system SARS-CoV-2. Kind of experiment: microbe, parasite or virus in culture. Conditions: Severe acute respiratory syndrome coronavirus 2, Vero C1008, 48 h; for IC50: read-out: pIC50 (converted).

pIC50: −log10 of the molar value.

For `N#CC[C@H](C1CCCC1)n1cc(-c2ncnc3[nH]ccc23)cn1` [RUXOLITINIB], the pIC50 is less than 4.70 and the IC50 is more than 20 µM.

As for `COc1cc(C(=O)NCCCCCC(=O)O)cc(OC)c1OC` [CAPOBENIC ACID], the negative-log IC50 (pIC50) was less than 4.70 and the IC50 was more than 20 µM.

Turning to `COc1cc(Cc2cnc(N)nc2N)cc(OC)c1OC` [TRIMETHOPRIM], the pIC50 is less than 4.70 and the IC50 is more than 20 µM.

Take `COc1ccccc1OC(=O)C(C)c1ccc(CC(C)C)cc1` (stereo unspecified): the negative-log IC50 (pIC50) was less than 4.70 and the IC50 is more than 20 µM.

For `OC[C@H]1O[C@@H]2O[C@H]3[C@H](O)[C@@H](O)[C@@H](O[C@H]4[C@H](O)[C@@H](O)[C@@H](O[C@H]5[C@H](O)[C@@H](O)[C@@H](O[C@H]6[C@H](O)[C@@H](O)[C@@H](O[C@H]7[C@H](O)[C@@H](O)[C@@H](O[C@H]8[C@H](O)[C@@H](O)[C@@H](O[C@H]9[C@H](O)[C@@H](O)[C@@H](O[C@H]1[C@H](O)[C@H]2O)O[C@@H]9CO)O[C@@H]8CO)O[C@@H]7CO)O[C@@H]6CO)O[C@@H]5CO)O[C@@H]4CO)O[C@@H]3CO` [GAMMA-CYCLODEXTRIN], the pIC50 is less than 4.70 and the IC50 was more than 20 µM.

For `CC(O)CC(C)(C)O` (stereo unspecified) [HEXYLENE GLYCOL], the pIC50 is less than 4.70 and the IC50 was more than 20 µM.

In the case of `O=C1c2ccccc2C(=O)C1c1ccc(Cl)cc1` [CLORINDIONE], the negative logarithm of the IC50 (pIC50) was less than 4.70 and the IC50 was more than 20 µM.

For `NC(=O)c1cn(Cc2c(F)cccc2F)nn1` [RUFINAMIDE], the pIC50 is less than 4.70 and the IC50 was more than 20 µM.

For `O=C(O)CCCCC(CCSCc1ccccc1)SCc1ccccc1` (stereo unspecified) [CPI 613], the pIC50 was less than 4.70 and the IC50 is more than 20 µM.

Turning to `O=C1OC(c2ccc(O)cc2)(c2ccc(O)cc2)c2ccccc21` [PHENOLPHTHALEIN], the pIC50 is less than 4.70 and the IC50 was more than 20 µM.

With `COc1cc(Br)c(CC2c3cc(OC)c(OC)cc3CCN2C)cc1OC` (racemic), the pIC50 was less than 4.70 and the IC50 was more than 20 µM.

On to `c1ccc2nc(N3CCNCC3)ccc2c1` [QUIPAZINE], for which the pIC50 was less than 4.70 and the IC50 was more than 20 µM.

As to `CCCOC(=O)Cc1ccc(OCC(=O)N(CC)CC)c(OC)c1` [PROPANIDID], the negative logarithm of the IC50 (pIC50) is less than 4.70 and the IC50 was more than 20 µM.

On to `COc1cccc(-c2ccc(NC(=O)C3=C(C(=O)O)CCC3)c(F)c2)c1` [VIDOFLUDIMUS], for which the pIC50 is less than 4.70 and the IC50 was more than 20 µM.

Consider `CCCCc1ccc2[nH]c(NC(=O)OC)nc2c1` [PARBENDAZOLE], for which the pIC50 is less than 4.70 and the IC50 is more than 20 µM.

On to `CCC(=O)OC1(c2ccccc2)CCN(C)CC1C` (stereo unspecified) [ALPHAPRODINE], for which the pIC50 is less than 4.70 and the IC50 is more than 20 µM.

Consider `COc1ccc(C(Cl)=C(c2ccc(OC)cc2)c2ccc(OC)cc2)cc1` [CHLOROTRIANISENE], for which the negative-log IC50 (pIC50) is less than 4.70 and the IC50 is more than 20 µM.

In the case of `CO[C@H]1[C@H](O)[C@H](O[C@H]2CC[C@@]3(C=O)[C@H](CC[C@@H]4[C@@H]3CC[C@]3(C)[C@@H](C5=CC(=O)OC5)CC[C@]43O)C2)O[C@@H](C)[C@@H]1O` [PERUVOSIDE], the pIC50 is less than 4.70 and the IC50 is more than 20 µM.

Consider `NCCCCCCNS(=O)(=O)c1cccc2c(Cl)cccc12`, for which the pIC50 is less than 4.70 and the IC50 was more than 20 µM.

In the case of `Cc1cccc(C(C)c2c[nH]cn2)c1C` (stereo unspecified) [MEDETOMIDINE], the pIC50 was less than 4.70 and the IC50 was more than 20 µM.

Consider `CC[C@H](CO)Nc1nc(NCc2ccccc2)c2ncn(C(C)C)c2n1` [SELICICLIB], for which the pIC50 is less than 4.70 and the IC50 is more than 20 µM.

As to `NC(=O)Oc1ccc(Cc2ccccc2)cc1`, the pIC50 was less than 4.70 and the IC50 was more than 20 µM.

Consider `COc1ccc(-c2cc3c(C)nc(N)nc3n([C@H]3CC[C@H](OCCO)CC3)c2=O)cn1` [PF-04691502], for which the pIC50 is less than 4.70 and the IC50 is more than 20 µM.

The term pIC50 denotes the negative decadic logarithm of the IC50, by convention in mol/L. A low value points to a large IC50.
